Laboratory results taken from patent publication US9629848B2, “Compounds that modulate autoimmunity and methods of using the same” (The Regents of the University of Colorado, a body corporate, priority 2011, dated 2017).

What was measured:
[1] = system: human T cell receptor recognizing insulin B:9-23 presented by human DQ8; experiment: Inhibition of human T cell receptor recognizing insulin B:9-23 presented by human DQ8; type: cell-based
Description: Using a TCR sequence obtained from a T cell line generated from the peripheral blood of a diabetic individual with DQ8 molecule, a TCR was identified that is DQ8 restricted and responds to the insulin B:9-23 peptide.
Molecules predicted to occupy pockets 1 and 9 of the human DQ8 peptide binding groove were identified using in silico molecular docking program. The top scoring compounds for each pocket were screened for their ability to inhibit anti-B:9-23 T cell responses. FIGS. 9A and 9B represent the results of the T cell stimulation assay for compounds occupying pocket 1 and pocket 9 of the human DQ8 peptide binding groove, respectively.

[2] = molecular target: T1, I-A^b complexed to a 3K peptide (Mus musculus, UniProt P14434+P14483); experiment: Tetramer staining, I-A^b complexed to a 3K peptide; type: cell-based; settings: specificity control
T1 sequence (P14434 24-218 limits assumed): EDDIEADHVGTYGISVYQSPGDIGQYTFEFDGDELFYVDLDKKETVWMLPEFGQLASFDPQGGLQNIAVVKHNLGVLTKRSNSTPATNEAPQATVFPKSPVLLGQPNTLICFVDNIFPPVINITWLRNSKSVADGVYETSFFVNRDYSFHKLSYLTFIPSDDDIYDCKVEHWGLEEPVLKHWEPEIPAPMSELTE
T1 sequence (P14483 28-226 limits assumed): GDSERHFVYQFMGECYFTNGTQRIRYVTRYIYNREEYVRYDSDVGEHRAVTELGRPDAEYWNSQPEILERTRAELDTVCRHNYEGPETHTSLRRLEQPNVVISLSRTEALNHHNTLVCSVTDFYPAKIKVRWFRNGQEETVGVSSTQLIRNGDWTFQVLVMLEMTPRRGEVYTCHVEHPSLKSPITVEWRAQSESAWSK

[3] = system: 489 TCR transfectoma, deamidated α-gliadin; experiment: Ex vivo biomarker assay in DQ8 humanized mice, 489 TCR transfectoma with deamidated α-gliadin; settings: pooled PBMCs from treated mice
Experimental: (§1) TATD was further evaluated in humanized DQ8 mice. These mice are on a NOD background, I-A null, and contain transgenes for DQ8 and human CD4 (NOD, I-A^g^7 null, DQ8 transgene, Rag KO). TATD was used to develop a rapid ex vivo biomarker assay to monitor the effects of small molecules on antigen presentation in DQ8 humanized mice. To identify a biomarker, mice were treated in vivo with TATD (either by intraperitoneal injection or gastric gavage) and isolated splenocytes or peripheral blood mononuclear cells (PBMCs) were used to monitor antigen presentation to DQ8 restricted T cell receptor (TCR) transfectomas.
(§2) Using this biomarker assay, DQ8 humanized mice were treated with a single intraperitoneal dose of TATD (20 mg/kg) and then sacrificed 2 hours later. Splenocytes from treated mice were cultured with the insulin B:13-23 antigen in the presence of clone 5 TCR transfectomas, or deamidated α-gliadin in the presence of the 489 TCR transfectoma. No TATD was added in vitro to the stimulation assays. Control mice received IP injections of PBS (the vehicle in which TATD is dissolved).

NOD mice = experiment: Insulin autoantibody production and diabetes onset in NOD mice; type: in vivo, mouse; settings: 20 mg/kg IP daily from 4 to 12 weeks of age
Experimental: To test the efficacy of this molecule in vivo, Jackson NOD mice were treated with TATD at a dose of 20 mg/kg IP daily starting at 4 weeks of age. Treatment ceased at 12 weeks of age. Insulin autoantibody (IAA) was measured before treatment at 8, 10, 12, 16, 20, and 24 weeks of age.

[4] = system: 5KC cells transduced with a 4-8 TCR; experiment: Endogenous insulin presentation: whole insulin with I-A^g^7 splenocytes and 4-8 TCR transduced 5KC cells; type: cell-based, mouse
Experimental: (§3) The ability of the small molecules to block endogenous insulin presentation was tested. Incubation of whole insulin with I-A^g^7 containing splenocytes activates 5KC cells (T cell hybridoma lacking endogenous TCRα and β chains) transduced with a 4-8 TCR. […] To document direct effects of these small molecules on inhibiting peptide binding to I-A^g^7, an I-A^g^7 protein construct was expressed in baculovirus with a linked peptide. The flexible linker contained a thrombin cleavage site, allowing for thrombin cleavage of the linker and release of the peptide.

I-A^g^7 = experiment: Soluble binding assay, B:9-23 peptide to empty I-A^g^7; design: species or system mouse; settings: dose dependent
Anti-CD3 stimulation = Anti-CD3 stimulation control in ex vivo biomarker assay; design: species or system DQ8 humanized mice; settings: mouse
Experimental: The IL-2 response from the TCR transfectomas using splenocytes harvested within 2 hours from TATD treated mice was abrogated compared to PBS treated controls (FIGS. 13A and 13B). Anti-CD3 stimulation was not inhibited in the presence of TATD.

[5] = system: clone 5 TCR transfectomas, insulin B:13-23 antigen; experiment: Ex vivo biomarker assay in DQ8 humanized mice, clone 5 TCR transfectomas with insulin B:13-23
Experimental: as §1, §2

[6] = system: isolated whole islets from an adult non-diabetic NOD mouse; experiment: TCR response to isolated whole islets; type: cell-based; settings: islets containing beta cells
Experimental: as §3

[7] = system: T cell response to the autoantigen, amino acids 9-23 in the B chain of insulin; experiment: Inhibition of T cell response to insulin B chain amino acids 9-23; type: cell-based, mouse
Description: (§4) This molecule inhibited the insulin presentation to T cells capable of causing diabetes in mice and T cells responding to insulin in humans. […] Specificity was shown by using the molecule to inhibit tetramer binding (I-A^g^7 complexed to insulin peptides) to T cells.

[8] = system: DQ8 restricted T cell receptor (TCR) transfectomas; experiment: Ex vivo biomarker assay in DQ8 humanized mice, duration and oral route
[9] = system: I-A^g^7 complexed to insulin peptides; experiment: Tetramer staining, I-A^g^7 complexed to insulin peptides; type: cell-based, mouse
Description: as §4

DQ8 = DQ8 (Homo sapiens, UniProt P01909+P01920, A209T/A45G/C70Q/D89A/DUP78-78/E183D/E77G/F237L/G63E/H199R/I129T/K197E/L178F/L74F/L98V/Q57E/Q76R/S185I/S97I/T217I/T49S/V73L/Y58L); experiment: Competitive binding assay B:9-23 to DQ8

SMILES: C1CN2CN3CCN(CN1C3)C2 [TATD, 1,3,6,8-tetraazatricyclo (4.4.1.1(3,8)) dodecane]
- Concentration inhibiting antigen presentation by human DQ8 to T cells involved in type 1 diabetes [1]: low nanomolar
- T cell staining with I-A^b / 3K peptide tetramer [2]: did not alter T cell staining
- 489 TCR transfectoma response to deamidated α-gliadin presented by PBMCs [3]: the same response is seen
- Diabetes onset (NOD mice): prevents diabetes onset
- Insulin autoantibody (IAA) formation (NOD mice; IAA up to 24 weeks): blocks IAA formation
- Inhibition of endogenous antigen presentation of whole insulin by antigen presenting cells [4]: able to inhibit endogenous antigen presentation
- Inhibition of B:9-23 peptide binding to I-A^g^7 (I-A^g^7): block peptide binding
- Anti-CD3 stimulation (Anti-CD3 stimulation): not inhibited
- Clone 5 response to insulin B:13-23 presented by PBMCs ([5]; pooled PBMCs from treated mice): blocked
- IL-2 response of clone 5 TCR transfectomas, splenocytes ([5]; single 20 mg/kg IP dose, splenocytes harvested within 2 hours, vs PBS controls): abrogated
- Inhibition of TCR response to whole islets [6]: able to inhibit endogenous antigen presentation
- Concentration inhibiting T cell response to insulin B:9-23 [7]: low nanomolar
- Blocking IL-2 production from the TCR transfectomas ([8]; gastric gavage): effective at blocking IL-2 production
- Oral absorption ([8]; gastric gavage): orally absorbed
- Duration of effects on antigen presentation ([8]; single dose): 7 days
- Tetramer staining of T cells recognizing insulin B:9-23 presented by I-A^g^7 [9]: inhibited tetramer staining
- Block of peptide binding to DQ8 (DQ8): block peptide binding
- IC50 (DQ8): 4.5 pM
